From US8841413B2, “Antidiabetic compounds” (Cadila Healthcare Limited, priority 2006, dated 2014)

Key:
C57BL/6J mice = experiment: Acute single dose 120-min time-course experiment, in vivo glucose reduction in C57BL/6J mice; set-up: unit not given here; settings: male C57BL/6J mice, Mean ± SEM
Description: All the animal experiments were carried out according to the internationally valid guidelines following approval by the ‘Zydus Research Center animal ethical committee’. […] Two days prior to the study, the animals were randomised and divided into 5 groups (n=6), based upon their fed glucose levels. On the day of experiment, food was withdrawn from all the cages, water was given ad-libitum and were kept for overnight fasting. Vehicle (normal saline)/test/standard compounds were administered intraperitoneally (i.p.) or orally, on a body weight basis. […] Blood samples were centrifuged and the separated serum was immediately subjected for the glucose estimation. Serum for insulin estimation was stored at −70° C. until used for the insulin estimation. The glucose estimation was carried out with DPEC-GOD/POD method (Ranbaxy Fine Chemicals Limited, Diagnostic division, India), using Spectramax-190, in 96-microwell plate reader (Molecular devices Corporation, Sunnyvale, Calif.). […] The AUC and BCAUC obtained from graphs were analyzed for one way ANOVA, followed by Dunnett's post test, using Graph Pad prism software. Furthermore, the insulin estimation was carried out using rat/mouse insulin ELISA kit (Linco research, Mo. USA).

Human GLP-1 receptor = molecular target: T1, Human GLP-1 receptor (Homo sapiens, UniProt P43220); assay type: cell-based; settings: in vitro, FIG. 4
T1 construct: The full-length cDNA was cloned in pcDNA3.1(+); expressed in transfected cells
Description: The novel peptidomimetics were screened for Human GLP-1 receptor (HGLP-1 R) agonist activity (in vitro), using the cAMP cell-based assay, in stably transfected CHO/human GLP1R cells. […] CHO cells were grown in Ham's F12 medium containing L-Glutamine (2 mM), HEPES (25 mM), NaHCO3 (1.1 g/L) and supplemented with NewBorn Calf Serum (NBCS; 10%), Penicillin (50 U/ml (v/v)) and Streptomycin (50 ug/ml (v/v)). Cells were split every 3 days 1:8.
The cDNA encoding the human GLP-1 receptor was isolated by RT-PCR according to standard protocol. The full-length cDNA was cloned in pcDNA3.1(+). […] Clones expressing the receptor were generated by G418 (800 μg/ml active, Sigma) selection. The stable clones were thereafter maintained at 500 ug/ml (G418). The selected clone was used between passages 9-25 for cAMP assays.
The trypsin was inactivated using Ham's F12 medium containing 10% NBCS and the cells were suspended in 2 ml of complete medium. […] The medium was aspirated off from the 12 well plate and the cells were washed once using Ham's F12 (plain). […] The cells were incubated with the test compounds for 30 min in humidified atmosphere and 37° C. After the incubation, the medium was removed and cells were washed once with plain Ham's F12. Subsequently, the cells were lysed by adding 500 ul of ice cold 0.1 N HCl to each well and shaking for 30 minutes at 200 rpm. […] The total cAMP was estimated from the sample according to the manufacturer's protocol using Cyclic AMP immunoassay kit (R&D systems, Minneapolis. MN). The remaining supernatant is used to determine the protein concentration using micro BCA (Sigma). Data is calculated as percent of control (Vehicle: water) and expressed as Mean±SD.

T1 sequence (P43220 24-463): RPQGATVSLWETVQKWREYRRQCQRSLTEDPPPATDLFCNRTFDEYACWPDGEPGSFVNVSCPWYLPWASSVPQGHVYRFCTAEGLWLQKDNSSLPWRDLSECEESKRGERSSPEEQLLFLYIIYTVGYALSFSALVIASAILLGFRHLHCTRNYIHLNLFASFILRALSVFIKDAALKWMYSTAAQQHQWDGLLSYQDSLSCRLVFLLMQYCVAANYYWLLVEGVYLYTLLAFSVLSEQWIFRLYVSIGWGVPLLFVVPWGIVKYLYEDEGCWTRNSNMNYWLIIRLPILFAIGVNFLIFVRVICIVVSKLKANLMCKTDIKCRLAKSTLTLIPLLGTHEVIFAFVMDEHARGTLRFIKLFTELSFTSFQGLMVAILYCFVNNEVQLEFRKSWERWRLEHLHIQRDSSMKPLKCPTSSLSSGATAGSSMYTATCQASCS

| Compound | blood glucose level (C57BL/6J mice; 10 nM/kg, i.p, 0 min) | blood glucose level (C57BL/6J mice; 10 nM/kg, i.p, 30 min) | blood glucose level (C57BL/6J mice; 10 nM/kg, i.p, 60 min) | blood glucose level (C57BL/6J mice; 10 nM/kg, i.p, 120 min) | blood glucose level (C57BL/6J mice; 2 μM/kg, oral, 0 min) | blood glucose level (C57BL/6J mice; 2 μM/kg, oral, 30 min) | blood glucose level (C57BL/6J mice; 2 μM/kg, oral, 60 min) | blood glucose level (C57BL/6J mice; 2 μM/kg, oral, 120 min) | further results |
| --- | --- | --- | --- | --- | --- | --- | --- | --- | --- |
| CCc1cc(OC)ccc1-c1ccc(CC(NC(=O)[C@H](CC(=O)O)NC(=O)[C@H](CO)NC(=O)[C@@H](NC(=O)C(C)(Cc2ccccc2F)NC(=O)[C@@H](NC(=O)CNC(=O)[C@H](CCC(N)=O)NC(=O)[C@H](CO)NC(=O)[C@@H](N)Cc2c[nH]cn2)[C@@H](C)O)[C@@H](C)O)C(=O)NC(Cc2ccc(-c3ccccc3F)cc2)C(N)=O)cc1 (single isomer, unassigned) [Seq. ID. No. 23, HSQGT-(α-Me-2F-Phe)-TSD-Bip(OMe)-Bip(2F)] |  |  |  |  |  |  |  |  | blood glucose level (C57BL/6J mice; 20 nM/kg, i.p, 0 min): 180 ± 3.1; blood glucose level (C57BL/6J mice; 20 nM/kg, i.p, 30 min): 122 ± 3.9; blood glucose level (C57BL/6J mice; 20 nM/kg, i.p, 60 min): 129 ± 2.2; blood glucose level (C57BL/6J mice; 20 nM/kg, i.p, 120 min): 140 ± 2.9 |
| CCc1cc(OC)ccc1-c1ccc(CC(NC(=O)[C@H](CC(=O)O)NC(=O)[C@H](CO)NC(=O)[C@@H](NC(=O)[C@H](Cc2ccccc2)NC(=O)[C@@H](NC(=O)CNC(=O)[C@H](CCC(N)=O)NC(=O)[C@H](CO)NC(=O)[C@@H](N)Cc2c[nH]cn2)[C@@H](C)O)[C@@H](C)O)C(=O)NC(Cc2ccc(-c3ccccc3C)cc2)C(N)=O)cc1 (single isomer, unassigned) [Seq. ID. No. 5] |  |  |  |  |  |  |  |  | GLP-1 receptor agonistic activity (in words) (Human GLP-1 receptor): GLP-1 receptor agonistic activity |
| CCc1cc(OC)ccc1-c1ccc(CC(NC(=O)[C@H](CC(=O)O)NC(=O)[C@H](CO)NC(=O)[C@@H](NC(=O)C(C)(Cc2ccccc2F)NC(=O)[C@@H](NC(=O)CNC(=O)[C@H](CCC(N)=O)NC(=O)C(C)(C)NC(=O)[C@@H](N)Cc2c[nH]cn2)[C@@H](C)O)[C@@H](C)O)C(=O)NC(Cc2ccc(-c3ccccc3C)cc2)C(N)=O)cc1 (single isomer, unassigned) [Seq. ID. No. 29, H-Aib-QGT-(α-Me-2F-Phe)-TSD-Bip(OMe)-Bip(2Me)] | 180 ± 2.5 | 110 ± 2.6 | 111 ± 3.2 | 112 ± 2.3 | 184 ± 2.5 | 115 ± 3.6 | 113 ± 4.2 | 110 ± 2.4 |  |
| CCc1cc(OC)ccc1-c1ccc(CC(NC(=O)[C@H](CC(=O)O)NC(=O)[C@H](CO)NC(=O)[C@@H](NC(=O)C(C)(Cc2ccccc2F)NC(=O)[C@@H](NC(=O)CNC(=O)[C@H](CCC(N)=O)NC(=O)C2(NC(=O)[C@@H](N)Cc3c[nH]cn3)CC2)[C@@H](C)O)[C@@H](C)O)C(=O)NC(Cc2ccc(-c3ccccc3C)cc2)C(N)=O)cc1 (single isomer, unassigned) [Seq. ID. No. 33, H-(ACP)-QGT-(α-Me-2F-Phe)-TSD-Bip(OMe)-Bip(2Me)] | 181 ± 2.5 | 111 ± 3.4 | 113 ± 3.1 | 110 ± 1.8 | 182 ± 2.5 | 116 ± 3.1 | 113 ± 4.1 | 110 ± 2.8 |  |
| CCc1cc(OC)ccc1-c1ccc(CC(NC(=O)[C@H](CC(=O)O)NC(=O)[C@H](CO)NC(=O)[C@@H](NC(=O)C(C)(Cc2ccccc2F)NC(=O)[C@@H](NC(=O)CNC(=O)[C@H](CCC(N)=O)NC(=O)C2(NC(=O)[C@@H](N)Cc3c[nH]cn3)CC2)[C@@H](C)O)[C@@H](C)O)C(=O)NC(Cc2ccc(-c3ccccc3F)cc2)C(N)=O)cc1 (single isomer, unassigned) [Seq. ID. No. 35, H-(ACP)-QGT-(α-Me-2F-Phe)-TSD-Bip(OMe)-Bip(2F)] | 182 ± 4.1 | 112 ± 3.1 | 113 ± 2.6 | 111 ± 1.8 | 183 ± 2.1 | 118 ± 3.4 | 113 ± 4.6 | 111 ± 2.8 |  |
| CCc1cc(OC)ccc1-c1ccc(CC(NC(=O)[C@H](CC(=O)O)NC(=O)[C@H](CO)NC(=O)[C@@H](NC(=O)[C@H](Cc2ccccc2)NC(=O)[C@@H](NC(=O)CNC(=O)[C@H](CCC(N)=O)NC(=O)C2(NC(=O)[C@@H](N)Cc3c[nH]cn3)CC2)[C@@H](C)O)[C@@H](C)O)C(=O)NC(Cc2ccc(-c3ccccc3F)cc2)C(N)=O)cc1 (single isomer, unassigned) [Seq. ID. No. 19, H-(ACP)-QGTFTSD-Bip(OMe)-Bip(2F)] |  |  |  |  |  |  |  |  | blood glucose level (C57BL/6J mice; 30 nM/kg, i.p, 0 min): 180 ± 3.2; blood glucose level (C57BL/6J mice; 30 nM/kg, i.p, 30 min): 119 ± 3.2; blood glucose level (C57BL/6J mice; 30 nM/kg, i.p, 60 min): 117 ± 3.1; blood glucose level (C57BL/6J mice; 30 nM/kg, i.p, 120 min): 118 ± 1.8 |
| CCc1cc(OC)ccc1-c1ccc(CC(NC(=O)[C@H](CC(=O)O)NC(=O)[C@H](CO)NC(=O)[C@@H](NC(=O)[C@H](Cc2ccccc2)NC(=O)[C@@H](NC(=O)CNC(=O)[C@H](CCC(N)=O)NC(=O)[C@H](C)NC(=O)[C@@H](N)Cc2c[nH]cn2)[C@@H](C)O)[C@@H](C)O)C(=O)NC(Cc2ccc(-c3ccccc3C(F)(F)F)cc2)C(N)=O)cc1 (single isomer, unassigned) [Seq. ID. No. 12] |  |  |  |  |  |  |  |  | blood glucose level (C57BL/6J mice; 50 nM/kg, i.p, 0 min): 184 ± 5.0; blood glucose level (C57BL/6J mice; 50 nM/kg, i.p, 30 min): 122 ± 3.8; blood glucose level (C57BL/6J mice; 50 nM/kg, i.p, 60 min): 128 ± 2.1; blood glucose level (C57BL/6J mice; 50 nM/kg, i.p, 120 min): 149 ± 2.3 |
| CCc1cc(OC)ccc1-c1ccc(CC(NC(=O)[C@H](CC(=O)O)NC(=O)[C@H](CO)NC(=O)[C@@H](NC(=O)[C@H](Cc2ccccc2)NC(=O)[C@@H](NC(=O)CNC(=O)[C@H](CCC(N)=O)NC(=O)C(C)(C)NC(=O)[C@@H](N)Cc2c[nH]cn2)[C@@H](C)O)[C@@H](C)O)C(=O)NC(Cc2ccc(-c3ccccc3C(F)(F)F)cc2)C(N)=O)cc1 (single isomer, unassigned) [Seq. ID. No. 16, H-Aib-QGTFTSD-Bip(OMe)-Bip(2CF3)] |  |  |  |  |  |  |  |  | blood glucose level (C57BL/6J mice; 30 nM/kg, i.p, 0 min): 183 ± 4.9; blood glucose level (C57BL/6J mice; 30 nM/kg, i.p, 30 min): 117 ± 2.5; blood glucose level (C57BL/6J mice; 30 nM/kg, i.p, 60 min): 116 ± 2.3; blood glucose level (C57BL/6J mice; 30 nM/kg, i.p, 120 min): 119 ± 2.0 |
| CCc1cc(OC)ccc1-c1ccc(CC(NC(=O)[C@H](CC(=O)O)NC(=O)[C@H](CO)NC(=O)[C@@H](NC(=O)C(C)(Cc2ccccc2F)NC(=O)[C@@H](NC(=O)CNC(=O)[C@H](CCC(N)=O)NC(=O)C2(NC(=O)[C@@H](N)Cc3c[nH]cn3)CC2)[C@@H](C)O)[C@@H](C)O)C(=O)NC(Cc2ccc(-c3ccccc3C(F)(F)F)cc2)C(N)=O)cc1 (single isomer, unassigned) [Seq. ID. No. 36, H-(ACP)-QGT-(α-Me-2F-Phe)-TSD-Bip(OMe)-Bip(2CF3)] | 180 ± 2.8 | 110 ± 3.6 | 112 ± 2.3 | 112 ± 1.6 | 183 ± 2.3 | 119 ± 3.0 | 112 ± 4.3 | 109 ± 2.6 |  |
| CCc1cc(OC)ccc1-c1ccc(CC(NC(=O)[C@H](CC(=O)O)NC(=O)[C@H](CO)NC(=O)[C@@H](NC(=O)C(C)(Cc2ccccc2F)NC(=O)[C@@H](NC(=O)CNC(=O)[C@H](CCC(N)=O)NC(=O)C2(NC(=O)[C@@H](N)Cc3c[nH]cn3)CC2)[C@@H](C)O)[C@@H](C)O)C(=O)NC(Cc2ccc(-c3ccccc3C)nc2)C(N)=O)cc1 (single isomer, unassigned) [Seq. ID. No. 34, H-(ACP)-QGT-(α-Me-2F-Phe)-TSD-Bip(OMe)-Bip(Pyr)] | 180 ± 4.2 | 113 ± 3.2 | 112 ± 2.4 | 110 ± 1.9 | 184 ± 2.2 | 118 ± 3.3 | 112 ± 4.4 | 110 ± 2.9 |  |
